Results from patent US20100047227A1, “NOVEL ANTICANCER CATHEPSIN FORMULATIONS AND ANTICANCER AGENT FOR USE IN COMBINED ANTICANCER THERAPY” (priority 2006, published 2010).

How the values were obtained:
[1] = tested on: human prostate epithelium (PrE) cells; test: cell survival rate of normal human prostate epithelial cells; assay type: cell-based; details: 100 μg/ml, 37° C., pH 7.4, 20 hours
Procedure: The survival rate of cells was measured by Cell Counting Kit-8 in accordance with a manufacturer's manual. The method will be described briefly as follows. A 96-well (each 100 μl) plate was inoculated with cells (1×10^4 cells) and incubated for 24 hours, and the cells were incubated in a non-serum culture medium Opti-MEM together with a given concentration of each cathepsin purified from rat stomach (References #27 and #60-#62). Thereafter, the kit reagent (10 μl) was added to each well and the wells were incubated for another 1 hour. After incubation, each well was measured at the absorbance of 450 nm with a microplate reader.
In this assay, the cells to be tested were incubated to a ˜80% confluent state and then together with cathepsin E (100 μg/ml) or physiological saline at 37° C. and pH 7.4 for 20 hours, followed by measurements for the cell survival rate by a colorimetric assay. The cell survival rate is represented as a percentage of a corresponding value to the cells treated with physiological saline, and the data is represented as an average value±SD from the data obtained by four separate experiments. […] As an alternative method, a culture medium of each cell line was immunoblot-analyzed using an anti-OPG antibody. […] Thereafter, the immunoblot was analyzed for its concentration in order to determine a quantity of a soluble TRAIL trimer. […]

[2] = tested on: TNF-α; test: ELISA of TNF-α in culture supernatant of ALVA-41 cells; assay type: cell-based, human; details: ALVA-41 cells treated with cathepsin E 100 μg/ml, 20 hours
Procedure: ALVA-41 cells (1×10^6 cells per a 6-cm dish) were incubated together with cathepsin E (100 μg/ml) in a non-serum culture medium Opti-MEM at 37° C. for 20 hours. The resulting culture supernatant was measured for amounts of TRAIL, FasL and TNF-α with ELSA kit in a manner as will be described briefly. A sample and a standard product (each 100 μl) were added to a microtiter plate immobilized with a monoclonal antibody to the corresponding member of the TNF family and incubated at room temperature for 2 hours. Then, the wells of the microtiter plate were washed four times with a washing buffer and 100 μl of biotin-conjugated monoclonal antibody was added to each wells of the plate, following by incubation at room temperature for 1 hour and washing the wells of the plate completely. Then, they were incubated together with 100 μl of streptoavidin-conjugated horseradish peroxidase at room temperature for 30 minutes and washed four times with a washing buffer. […] After an addition of a reaction terminating solution, the wells were measured at 450 nm with microreader.
In this experiment, the ALVA-41 cells were treated with cathepsin E (100 μg/ml) or physiological saline at 37° C. and pH 7.4 for 20 hours and measured for the amounts of TNF-α, FasL and TRAIL in the culture supernatant by ELSA. […] Apoptosis of the ALVA-41 cells was measured using the culture supernatant after immunoprecipitation. […]

[3] = tested on: ALVA-41 cells tumor in nude mice; test: tumor growth in nude mice transplanted subcutaneously with ALVA-41 cells; assay type: in vivo
Procedure: In order to study the growth of primary tumor, 1 ml of PBS solution containing ALVA-41 cells (5×10^6 cells) was injected subcutaneously into the right flank of a male nude mouse. Separately, a solution of mouse melanoma B16 cells (1×10^6 cells) was likely injected subcutaneously into the right flank of an inbred wild-type (WT) mouse, CatE^−/− mouse and CatE^Tg mouse. The size of the tumor was measured with a caliper, and the tumor volume was calibrated by ab^2/2 (where a and b represent a maximum dimension of the central section and a minimum dimension of the central section, respectively). As the size of the heterograft of the ALVA-41 cell reached approximately 100 mm^3 (approximately at day 12 after injection), animals were divided into two groups of each 5 animals. To the two animal groups, respectively, purified cathepsin E (200 μg per kg of body weight per day) and physiological saline were injected into the central portion of the tumor for 16 days. For a measurement for the tumor weight and an immunohistochemical study, […] reached approximately 400 mm^3. For a study on metastasis, melanoma B16 cells (2×10^5 cells in 50 μl of PBS solution) was injected into a tail vein of a Wt mouse, CatE^−/− mouse and CatE^Tg. The mice were then anesthetized at day 22 after injection and killed with a lethal amount of diethylether, followed by removing the lungs and counting the number of black metastasis colonies.
As the tumor volume reached ˜[…] after subcutaneous injection, cathepsin E (200 μg/kg/day) or physiological saline was subcutaneously injected into the central portion of the tumor for 16 days. […] Data are represented as an average value±SD of the value obtained from three mice per each group. […] The TUNEL assay was carried out by reacting with diaminobenzidine and counter-staining tissue slices with 1% methyl green. Data represent the result obtained from five mice per group. In the figure, the lower image is an expanded version of the upper image. In the figure, a bar scale represents 50 μm.

## cathepsin E
[1]
  influence upon survival and morphology of normal PrE cells: little exerted influences upon the survival and morphology
[2]
  TNF-α in culture supernatant: little detected
[3]; 200 μg/kg daily for 16 days into central portion of tumor, start at approx. 100 mm^3
  growth of tumor compared to saline control: grown in a remarkably controlled manner
[3]; 400 μg/kg once per day for 10 days, start at approx. 400 mm^3
  weight of the tumor versus control group: significantly lower
[3]; daily dose of 30 μg/kg or lower
  effect of suppressing the tumor: little recognized
[3]; daily dose of 50 μg/kg
  effect upon regression of tumor: rather decreased
[3]; nude mice administered cathepsin E
  toxicity toward normal tissues and cells: no effect upon toxicity toward normal tissues and cells can be recognized at all
[3]; tumors after 10 days administration
  apoptosis cells in tumor by TUNEL stain: a number of the apoptosis cells were observed
